pEC50: −log10 of the molar value. Where two headings read alike, the source gives them in different places.
Experiments:
PPARα = biological target: T1, PPARα (Rattus norvegicus, UniProt P37230); experiment: HD bDNA Assay (HD gene induction); assay type: cell-based; conditions: in section F; target not named there, values match the PPARα column; read-out: EC50
T1 construct: H4IIE rat hepatoma cell line was obtained from ATCC; host or cells: H4IIE rat hepatoma cells
T1 sequence (P37230 1-468): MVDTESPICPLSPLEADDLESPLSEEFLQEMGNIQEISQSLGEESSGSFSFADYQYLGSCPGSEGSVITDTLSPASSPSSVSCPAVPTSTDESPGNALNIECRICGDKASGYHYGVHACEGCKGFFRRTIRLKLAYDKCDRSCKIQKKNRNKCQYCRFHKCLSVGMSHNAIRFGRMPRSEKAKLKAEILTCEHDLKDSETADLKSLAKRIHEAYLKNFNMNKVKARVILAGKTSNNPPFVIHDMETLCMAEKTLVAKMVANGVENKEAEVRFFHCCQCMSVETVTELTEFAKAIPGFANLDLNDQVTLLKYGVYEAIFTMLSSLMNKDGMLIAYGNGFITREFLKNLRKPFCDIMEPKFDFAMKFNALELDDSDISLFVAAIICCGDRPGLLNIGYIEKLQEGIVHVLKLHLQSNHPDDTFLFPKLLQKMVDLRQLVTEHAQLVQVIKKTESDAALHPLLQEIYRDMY
Procedure: HD bDNA Assay H4IIE rat hepatoma cell line was obtained from ATCC. Cells were cultured in 175 cm^2 tissue culture flask or seeded in 96-well plate with (high serum content, 10% fetal bovine serum and 10% calf serum) culture medium and maintained at 37° C. and 5% CO2 throughout study. Twenty-four hours after the initial seeding of the 96-well plate by hand (approximate 100,000/well), the HD gene induction assay was initiated. Media was removed and replaced with 100 ul of low serum culture media (5% charcoal/dextran treated calf serum) containing vehicle (DMSO) or test compounds or standard. Cells returned to incubator for 24 hours culture. At the termination of the challenge, 50 ul lysis buffer with HD gene specific CE, LE, BL probes was added directly into each well to initiate the bDNA HD mRNA assay. The branched DNA assay was performed according to the manufacturer's protocol (Bayer Diagnostics; Emeryville. Calif.). At the end of the assay, the luminescence was quantitated in Dynex MLX microtiter plate luminometer. EC50's were determined by non-linear regression with a sigmoidal fit utilizing Graphpad Prism.

PPARδ = biological target: T2, PPARδ (Homo sapiens, UniProt Q03181); experiment: Transfection Assay for PPARδ Receptors (PPAR-Gal4 / Gal4-Luciferase reporter in HEK293 cells); assay type: cell-based; conditions: for PPARδ FI: fold induction, PPARδ standard: FI = 36.1; for pEC50: values in square brackets
T2 construct: a Gal4-Luciferase reporter is co-transfected
T2 sequence (Q03181 171-441 limits assumed): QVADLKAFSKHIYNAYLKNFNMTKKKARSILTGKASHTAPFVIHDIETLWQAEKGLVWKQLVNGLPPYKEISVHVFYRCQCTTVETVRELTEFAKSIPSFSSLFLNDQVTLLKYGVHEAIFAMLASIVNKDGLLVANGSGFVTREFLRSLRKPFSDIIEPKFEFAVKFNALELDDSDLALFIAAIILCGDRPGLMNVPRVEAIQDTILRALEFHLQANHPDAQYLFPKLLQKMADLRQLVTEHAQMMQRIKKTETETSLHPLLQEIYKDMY
Procedure: Transfection Assay for PPARδ Receptors
HEK293 cells were grown in DMEM/F-12 Media supplemented with 10% FBS and glutamine (GIBCOBRL). The cells were co-transfected with DNA for PPAR-Gal4 receptor and Gal4-Luciferase Reporter using the DMRIE-C Reagent. On the following day, the DNA-containing medium were replaced with 5% Charcoal treated FBS growth medium. After six hours, cells were seeded in 96 well plate and incubated at 37° C. in CO2 incubator overnight. Cells were challenged by test compounds and incubated for 24 hours at 37° C. in 5% CO2 incubator. Luciferase activity was assayed using the Steady-Glo Luciferase Assay Kit from Promega. DMRIE-C Reagent was purchased from GIBCO Cat. No.10459-014. OPTI-MEM I Reduced Serum Medium was purchased from GIBCO Cat. No. 31985. Steady-Glo Luciferase Assay Kit was obtained from Promega Part# E254B.

PPARγ = biological target: T3, PPARγ (Homo sapiens, UniProt P37231); experiment: aP2 Assay for PPAR gamma Agonists (bDNA aP2 mRNA in preadipocytes); assay type: cell-based; conditions: for PPARγ FI: fold induction, PPARγ standard: FI = 70.3; for pEC50: values in square brackets
T3 construct: Following the challenge of the preadipocytes, cells may be lysed with lysis buffer; endogenous in cells; host or cells: preadipocytes
T3 sequence (P37231 1-505): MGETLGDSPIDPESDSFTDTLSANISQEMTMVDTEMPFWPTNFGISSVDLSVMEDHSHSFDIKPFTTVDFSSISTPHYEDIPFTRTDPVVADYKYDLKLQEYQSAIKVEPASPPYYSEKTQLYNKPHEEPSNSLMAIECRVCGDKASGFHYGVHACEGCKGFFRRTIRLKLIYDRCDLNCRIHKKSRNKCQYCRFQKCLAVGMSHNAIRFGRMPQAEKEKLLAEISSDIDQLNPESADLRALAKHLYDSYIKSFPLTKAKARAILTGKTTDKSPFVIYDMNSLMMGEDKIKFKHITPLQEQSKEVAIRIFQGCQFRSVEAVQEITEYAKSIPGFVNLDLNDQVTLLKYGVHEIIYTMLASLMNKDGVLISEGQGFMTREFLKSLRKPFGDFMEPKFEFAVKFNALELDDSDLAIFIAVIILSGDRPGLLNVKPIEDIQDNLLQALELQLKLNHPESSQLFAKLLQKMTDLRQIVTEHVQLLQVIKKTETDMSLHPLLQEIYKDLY
Text: aP2 Assay for PPAR gamma Agonists
The procedure is described in detail in Burris et al., Molecular Endocrinology, 1999, 13:410, which is hereby incorporated by reference in its entirety, and aP2 assay results of agonist intrinsic activity may be presented as fold increase over vehicle in induction of aP2 mRNA production.
Twenty-four hours after the initial seeding of the 96-well plates by hand (around 20,000/well), the differentiation assay may be initiated. Medium may be removed and replaced with […] of differentiation medium containing vehicle (DMSO) or test compounds. Cells may be returned to incubator for 24 hours culture. At the termination of the challenge, medium may be removed and 100 ul of lysis buffer may be added to initiate the bDNA aP2 mRNA assay. The branched DNA assay may be performed according to the manufacturer's protocol (Bayer Diagnostics; Emeryville, Calif.). Result may be expressed as the fold increase of aP2 mRNA production activated over vehicle controls. EC50's and Emax may be determined by non-linear regression with a sigmoidal fit curve.
Following the challenge of the preadipocytes, cells may be lysed with lysis buffer (Bayer Diagnostics) containing the aP2 oligonucleotides. After a 15 minute incubation at 53° C. or 30 minutes at 37° C. incubator, 70 ul of the lysis buffer from each well may be added to a corresponding capture well (preincubated with 70 ul of blocking buffer (Bayer Diagnostics)). The capture plate may be incubated overnight at 53° C. in a plate incubator (Bayer Diagnostics). After this incubation, the bDNA and labeled probes may be annealed as directed by the manufacturer. Following a 30-minute incubation with the luminescent alkaline phosphatase substrate, dioxitane, the luminescence may be quantitated in a Dynex MLX microtiter plate luminometer. Oligonucleotide probes designed to anneal to the aP2 mRNA and function in the bDNA mRNA detection system are designed with ProbeDesigner software (Bayer Diagnostics). This software package analyzes a target sequence of interest with a series of algorithms in order to determine which regions of the sequence can perform as locations for capture, label, or spacer probe annealing. The sequences of the oligonucleotides are as follows: […]

db/db mice = experiment: Oral dosing in female db/db mice; assay type: in vivo; conditions: Mus musculus, 120 h, 1.0 mpk, 5 day oral dosing, % change compared to vehicle
Procedure: The compound was prepared as suspensions in 0.5% hydroxypropylmethylcellulose (Dow Chemical, Midland, Mich.). The dosing volume was 10 mL/kg of body weight. […] Body weight was measured in the mornings on Day 1, prior to dosing, and on Day 12 before bleeding. 18-24 hours after the final dose for each group, the mice were anesthetized with CO2/O2 (70:30) and bled by retro-orbital sinus puncture into micro-tubes containing clog activator and then put in ice. The serum samples were prepared by centrifugation. Serum glucose and triglycerides were determined by using COBAS Mira Plus blood chemistry analyzer (Roche Diagnostics, N.J.). Serum insulin was measured by using ALPCO insulin ELISA kit.
Statistical analysis was performed using the program Prism (Graphpad, Monrovia, Calif.) and performing one-way ANOVA with a Dunnet's multiple comparison test.

Row | Structure (SMILES) | pEC50 (PPARα) | PPARγ FI (PPARγ) | also measured
1 | CCCCCN(C(=O)Nc1ccc(SC(F)(F)F)cc1)C1Cc2ccc(SC(C)(C)C(=O)O)cc2C1 (stereo not shown) [Example 5, 2-Methyl-2-{2-[1-pentyl-3-(4-trifluoromethylsulfanylphenyl)ureido]indan-5-ylsulfanyl}propionic acid] | 7.28 | 4.0 | PPARδ FI (PPARδ): 2.5; change in vivo at 1 mg/kg (db/db mice; read-out: Δ BW): 56%; change in vivo at 1 mg/kg (db/db mice; read-out: Δ Plasma Glucose): -31%; change in vivo at 1 mg/kg (db/db mice; read-out: Δ Plasma Insulin): -43%; change in vivo at 1 mg/kg (db/db mice; read-out: Δ Plasma TG): -19%
2 | CCN(C(=O)Oc1ccc(Cl)cc1)C1CCc2cc(SC(C)(C)C(=O)O)c(Cl)cc2C1 (stereo not shown) [Example 59, 2-{3-Chloro-6-[(4-chloro-phenoxycarbonyl)-ethyl-amino]-5,6,7,8-tetrahydronaphthalen-2-ylsulfanyl}-2-methyl-propionic acid] | 6.41 |  | pEC50 (PPARδ): 6.18; pEC50 (PPARγ): 5.95
3 | CC(C)CCN(C(=O)Nc1ccc(OC(F)(F)F)cc1)C1Cc2ccc(SC(C)(C)C(=O)O)cc2C1 (stereo not shown) [Example 20, 2-Methyl-2-{2-[1-(3-methylbutyl)-3-(4-trifluoromethoxyphenyl)ureido]indan-5-ylsulfanyl}-2-methylpropionic acid] | 6.97 | 0.44 | 
4 | CCCCCN(C(=O)Nc1ccc(-c2ccccc2)cc1)C1Cc2ccc(SC(C)(C)C(=O)O)cc2C1 (stereo not shown) [Example 12] | 6.74 | 11 | 
5 | CC(C)(Sc1ccc2c(c1)CC(NC(=O)Nc1ccc(OC(F)(F)F)cc1)C2)C(=O)O (stereo not shown) [Example 18, 2-Methyl-2-{2-[3-(4-trifluoromethoxyphenyl)ureido]indan-5-ylsulfanyl}propionic acid] | 6.87 | 0.31 | 
6 | CCCCCCN(C(=O)Nc1ccc(OC(F)(F)F)cc1)C1Cc2ccc(SC(C)(C)C(=O)O)cc2C1 (stereo not shown) [Example 14, 2-Methyl-2-{2-[1-hexyl-3-(4-trifluoromethoxyphenyl)ureido]indan-5-ylsulfanyl}propionic acid] | 6.67 | 0.3 | PPARδ FI (PPARδ): 1.3
7 | CCCCN(C(=O)Nc1ccc(SC(F)(F)F)cc1)C1Cc2ccc(SC(C)(C)C(=O)O)cc2C1 (stereo not shown) [Example 17, 2-Methyl-2-{2-[1-butyl-3-(4-trifluoromethylsulfanylphenyl)ureido]indan-5-ylsulfanyl}propionic acid] | 6.80 | 0.43 | 
8 | CCN(C(=O)Oc1ccc(OC(F)(F)F)cc1)C1CCc2cc(SC(C)(C)C(=O)O)ccc2C1 (stereo not shown) [Example 60, 2-{6-[Ethyl-(4-trifluoromethoxy-phenoxycarbonyl)-amino]-5,6,7,8-tetrahydronaphthalen-2-ylsulfanyl}-2-methyl-propionic acid] | 8.70 |  | pEC50 (PPARδ): < 5.52; pEC50 (PPARγ): < 5.52
9 | CCCCCCN(C(=O)Nc1ccc(C(C)C)cc1)C1Cc2ccc(SC(C)(C)C(=O)O)cc2C1 (stereo not shown) [Example 13] | 6.74 | 1.2 | 
10 | CCN(C(=O)Oc1ccc(C)cc1)C1CCc2cc(SC(C)(C)C(=O)O)c(Cl)cc2C1 (stereo not shown) [Example 58, 2-{3-Chloro-6-[(4-methyl-phenoxycarbonyl)-ethyl-amino]-5,6,7,8-tetrahydronaphthalen-2-ylsulfanyl}-2-methyl-propionic acid] | 6.47 |  | pEC50 (PPARδ): 6.21; pEC50 (PPARγ): < 5.52
11 | CC(C)CCN(C(=O)Nc1ccc(C(C)C)cc1)C1Cc2ccc(SC(C)(C)C(=O)O)cc2C1 (stereo not shown) [Example 21, 2-{2-[3-(4-Isopropylphenyl)-1-(3-methylbutyl)ureido]indan-5-ylsulfanyl}-2-methylpropionic acid] | 6.97 | 0.05 | 
12 | CCN(C(=O)Nc1ccc(SC(F)(F)F)cc1)C1Cc2ccc(SC(C)(C)C(=O)O)cc2C1 (stereo not shown) [Example 4, 2-{2-[1-Ethyl-3-(4-trifluoromethylsulfanylphenyl)ureido]indan-5-ylsulfanyl}-2-methylpropionic acid] | 7.43 | 3.7 | change in vivo at 1 mg/kg (db/db mice; read-out: Δ BW): -11%; change in vivo at 1 mg/kg (db/db mice; read-out: Δ Plasma Glucose): -49%; change in vivo at 1 mg/kg (db/db mice; read-out: Δ Plasma Insulin): -13%; change in vivo at 1 mg/kg (db/db mice; read-out: Δ Plasma TG): -47%

Source: US20040171680A1, “Treating Syndrome X with substituted tetralins and indanes” (priority 2002, published 2004)
